How the values were obtained:
human recombinant Btk = human recombinant Btk (Homo sapiens (Human), UniProt Q06187); assay: Human Recombinant Btk Enzyme Assay; type: biochemical; details: human recombinant Btk 1 nM, ATP 20 μM
Jak2 tyrosine kinase = Jak2 tyrosine kinase (Homo sapiens (Human), UniProt O60674); assay: Jak2 Tyrosine Kinase Assay; type: biochemical; details: for IC50: Jak2 1 nM, ATP 30 μM; for Ratio of Jak2/Btk IC50 values: selectivity for Btk over Jak2, larger value = more selective for Btk
Jak2 tyrosine kinase, sequence (O60674 whole entry): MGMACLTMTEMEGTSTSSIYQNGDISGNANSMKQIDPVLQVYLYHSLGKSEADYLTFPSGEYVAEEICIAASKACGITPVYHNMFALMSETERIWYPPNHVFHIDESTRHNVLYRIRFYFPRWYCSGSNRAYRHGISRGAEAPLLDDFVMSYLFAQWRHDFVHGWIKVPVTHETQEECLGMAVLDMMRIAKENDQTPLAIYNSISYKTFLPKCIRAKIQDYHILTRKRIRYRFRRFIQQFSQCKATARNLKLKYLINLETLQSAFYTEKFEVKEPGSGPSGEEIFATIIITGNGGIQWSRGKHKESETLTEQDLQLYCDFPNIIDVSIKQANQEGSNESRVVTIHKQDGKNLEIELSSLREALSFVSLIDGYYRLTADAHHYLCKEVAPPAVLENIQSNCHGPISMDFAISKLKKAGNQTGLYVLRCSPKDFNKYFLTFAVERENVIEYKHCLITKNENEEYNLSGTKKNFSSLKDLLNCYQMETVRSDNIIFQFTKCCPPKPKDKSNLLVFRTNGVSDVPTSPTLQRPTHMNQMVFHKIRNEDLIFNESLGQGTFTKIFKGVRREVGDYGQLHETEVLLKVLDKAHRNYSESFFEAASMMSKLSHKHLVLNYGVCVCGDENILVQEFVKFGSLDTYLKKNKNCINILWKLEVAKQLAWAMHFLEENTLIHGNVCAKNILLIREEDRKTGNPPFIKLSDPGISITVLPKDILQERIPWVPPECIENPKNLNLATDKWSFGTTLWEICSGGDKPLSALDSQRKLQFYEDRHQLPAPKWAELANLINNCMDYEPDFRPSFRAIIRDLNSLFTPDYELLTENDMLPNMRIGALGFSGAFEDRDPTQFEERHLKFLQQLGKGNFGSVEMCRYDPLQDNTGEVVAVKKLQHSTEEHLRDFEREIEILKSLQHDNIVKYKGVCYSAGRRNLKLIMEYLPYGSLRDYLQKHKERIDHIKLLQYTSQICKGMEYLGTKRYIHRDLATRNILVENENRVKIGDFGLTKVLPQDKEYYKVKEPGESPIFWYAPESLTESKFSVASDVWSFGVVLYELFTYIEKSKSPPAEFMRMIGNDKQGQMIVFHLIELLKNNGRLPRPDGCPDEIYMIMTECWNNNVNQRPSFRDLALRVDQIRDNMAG

[1] = system: CD69 expression on B cells in human whole blood; assay: Whole Blood Assays of BCR-Stimulated CD69 Expression on B Cells; type: cell-based; details: anti-human IgM + IL-4 stimulation, 18 h at 37° C.

human recombinant Btk, sequence (Q06187 whole entry): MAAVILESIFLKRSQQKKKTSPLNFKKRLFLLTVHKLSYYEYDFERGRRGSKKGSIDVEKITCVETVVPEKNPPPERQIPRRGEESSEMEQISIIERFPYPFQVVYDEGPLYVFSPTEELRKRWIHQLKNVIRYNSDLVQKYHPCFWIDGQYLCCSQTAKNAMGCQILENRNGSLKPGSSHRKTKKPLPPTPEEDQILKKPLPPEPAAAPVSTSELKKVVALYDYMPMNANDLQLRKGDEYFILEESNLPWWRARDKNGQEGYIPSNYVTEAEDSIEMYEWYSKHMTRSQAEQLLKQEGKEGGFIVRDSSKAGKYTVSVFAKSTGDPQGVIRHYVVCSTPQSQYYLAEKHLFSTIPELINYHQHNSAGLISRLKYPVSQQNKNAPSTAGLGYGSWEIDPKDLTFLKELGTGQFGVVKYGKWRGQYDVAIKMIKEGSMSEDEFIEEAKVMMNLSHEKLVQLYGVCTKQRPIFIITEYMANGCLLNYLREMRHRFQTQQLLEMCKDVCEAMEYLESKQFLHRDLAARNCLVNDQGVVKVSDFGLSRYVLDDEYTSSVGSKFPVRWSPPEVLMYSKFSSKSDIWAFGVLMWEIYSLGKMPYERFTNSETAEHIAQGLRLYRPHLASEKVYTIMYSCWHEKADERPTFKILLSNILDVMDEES

## Cc1c(-c2ccc(C(N)=O)c3[nH]c4cc(C(C)(C)O)ccc4c23)cccc1-n1c(=O)cc2sccn2c1=O [Example 20, 4-(3-(5,7-Dioxo-5H-thiazolo[3,2-c]pyrimidin-6(7H)-yl)-2-methylphenyl)-7-(2-hydroxypropan-2-yl)-9H-carbazole-1-carboxamide]
Human recombinant Btk
  IC50: 1.6 nM
Jak2 tyrosine kinase
  IC50: 570 nM
  Ratio of Jak2/Btk IC50 values: 360
[1]; B-cell
  IC50: 130 nM

## Cc1c(-c2ccc(C(N)=O)c3[nH]c4cc(C(C)(C)O)ccc4c23)cccc1-n1c(=O)cc2c(F)cccn2c1=O [Example 22, 4-(3-(5-Fluoro-1,3-dioxo-1H-pyrido[1,2-c]pyrimidin-2(3H)-yl)-2-methylphenyl)-7-(2-hydroxypropan-2-yl)-9H-carbazole-1-carboxamide]
Human recombinant Btk
  IC50: 1.7 nM
Jak2 tyrosine kinase
  IC50: 880 nM
  Ratio of Jak2/Btk IC50 values: 520
[1]
  IC50: 91 nM

## Cc1c(-c2ccc(C(N)=O)c3[nH]c4cc(C(C)(C)O)ccc4c23)cccc1-n1c(=O)c2cc(F)ccc2n(C)c1=O [Example 8, 4-(3-(6-Fluoro-1-methyl-2,4-dioxo-1,2-dihydroquinazolin-3(4H)-yl)-2-methylphenyl)-7-(2-hydroxypropan-2-yl)-9H-carbazole-1-carboxamide]
Human recombinant Btk
  IC50: 5.8 nM
Jak2 tyrosine kinase
  IC50: 2200 nM
  Ratio of Jak2/Btk IC50 values: 380
[1]; B-cell
  IC50: 160 nM

## [2H]C([2H])([2H])n1c(=O)n(-c2cccc(-c3ccc(C(N)=O)c4[nH]c5cc(C(C)(C)O)ccc5c34)c2C)c(=O)c2cccc(F)c21 (atropisomer, axis not shown) [Example 4, 4-(3-(S)-(8-Fluoro-1-methyl(d3)-2,4-dioxo-1,2-dihydroquinazolin-3(4H)-yl)-2-methylphenyl)-7-(2-hydroxypropan-2-yl)-9H-carbazole-1-carboxamide]
Jak2 tyrosine kinase
  IC50: 2000 nM
[1]
  IC50: 190 nM

## Cc1c(-c2ccc(C(N)=O)c3[nH]c4cc(C(C)(C)O)ccc4c23)cccc1-n1c(=O)[nH]c2c(F)cccc2c1=O (single isomer, unassigned) [Example 2, 4-(3-(8-Fluoro-2,4-dioxo-1,2-dihydroquinazolin-3(4H)-yl)-2-methylphenyl)-7-(2-hydroxypropan-2-yl)-9H-carbazole-1-carboxamide]
Human recombinant Btk
  IC50: 2.4 nM
Jak2 tyrosine kinase
  IC50: 850 nM
  Ratio of Jak2/Btk IC50 values: 350
[1]
  IC50: 200 nM

## Cc1c(-c2ccc(C(N)=O)c3[nH]c4cc(C(C)(C)O)ccc4c23)cccc1-n1c(=O)cc2c(Cl)cccn2c1=O (atropisomer, axis not shown) [Example 15, 4-(3-(S)-(5-Chloro-1,3-dioxo-1H-pyrido[1,2-c]pyrimidin-2(3H)-yl)-2-methylphenyl)-7-(2-hydroxypropan-2-yl)-9H-carbazole-1-carboxamide]
Human recombinant Btk
  IC50: 0.41 nM
Jak2 tyrosine kinase
  IC50: 1000 nM
  Ratio of Jak2/Btk IC50 values: 2400
[1]
  IC50: 59 nM

## Cc1c(-c2ccc(C(N)=O)c3[nH]c4cc(C(C)(C)O)ccc4c23)cccc1-n1c(=O)cc2c(F)cccn2c1=O [Example 23, 4-(3-(5-Fluoro-1,3-dioxo-1H-pyrido[1,2-c]pyrimidin-2(3H)-yl)-2-methylphenyl)-7-(2-hydroxypropan-2-yl)-9H-carbazole-1-carboxamide]
Human recombinant Btk
  IC50: 1.2 nM
Jak2 tyrosine kinase
  IC50: 1000 nM
  Ratio of Jak2/Btk IC50 values: 830
[1]
  IC50: 79 nM

## [2H]C([2H])([2H])n1c(=O)n(-c2cccc(-c3ccc(C(N)=O)c4[nH]c5cc(C(C)(C)O)cc(C)c5c34)c2C)c(=O)c2cccc(F)c21 (atropisomer, axis not shown) [Example 27, 4-(3-(S)-(8-Fluoro-1-methyl(d3)-2,4-dioxo-1,2-dihydroquinazolin-3(4H)-yl)-2-methylphenyl)-7-(2-hydroxypropan-2-yl)-5-methyl-9H-carbazole-1-carboxamide]
Human recombinant Btk
  IC50: 1.2 nM
Jak2 tyrosine kinase
  IC50: > 2000 nM
  Ratio of Jak2/Btk IC50 values: >1700
[1]; B-cell
  IC50: 98 nM

## COCc1ccc2c(c1)[nH]c1c(C(N)=O)ccc(-c3cccc(-n4c(=O)cc5c(F)cccn5c4=O)c3C)c12 [Example 18, 4-(3-(5-Fluoro-1,3-dioxo-1H-pyrido[1,2-c]pyrimidin-2(3H)-yl)-2-methylphenyl)-7-(methoxymethyl)-9H-carbazole-1-carboxamide]
Human recombinant Btk
  IC50: 2.3 nM
Jak2 tyrosine kinase
  IC50: 740 nM
  Ratio of Jak2/Btk IC50 values: 320
[1]; B-cell
  IC50: 130 nM

## Cc1c(-c2ccc(C(N)=O)c3[nH]c4cc(C(C)(C)O)ccc4c23)cccc1-n1c(=O)cc2c(F)cccn2c1=O [Example 21, 4-(3-(5-Fluoro-1,3-dioxo-1H-pyrido[1,2-c]pyrimidin-2(3H)-yl)-2-methylphenyl)-7-(2-hydroxypropan-2-yl)-9H-carbazole-1-carboxamide]
Human recombinant Btk
  IC50: 0.93 nM
Jak2 tyrosine kinase
  IC50: 960 nM
  Ratio of Jak2/Btk IC50 values: 1000
[1]; Homo sapiens, B-cell, 18 h
  IC50: 75 nM

## Cc1c(-c2ccc(C(N)=O)c3[nH]c4cc(C(C)(C)O)ccc4c23)cccc1-n1c(=O)cc2c(Cl)cccn2c1=O [Example 13, 4-(3-(5-Chloro-1,3-dioxo-1H-pyrido[1,2-c]pyrimidin-2(3H)-yl)-2-methylphenyl)-7-(2-hydroxypropan-2-yl)-9H-carbazole-1-carboxamide]
Human recombinant Btk
  IC50: 0.94 nM
Jak2 tyrosine kinase
  IC50: 1300 nM
  Ratio of Jak2/Btk IC50 values: 1400
[1]
  IC50: 120 nM

## Cc1nc(C(N)=O)c2[nH]c3cc(C(C)(C)O)ccc3c2c1-c1cccc(-n2cnc3ccccc3c2=O)c1C [compound 35, 7-(2-Hydroxypropan-2-yl)-3-methyl-4-(2-methyl-3-(4-oxoquinazolin-3(4H)-yl)phenyl)-9H-pyrido[3,4-b]indole-1-carboxamide, reference compound]
Jak2 tyrosine kinase
  Ratio of Jak2/Btk IC50 values: 29

## Cc1c(-c2ccc(C(N)=O)c3[nH]c4cc(C(C)(C)O)ccc4c23)cccc1-n1c(=O)c(F)c2ccccn2c1=O [Example 19, 4-(3-(4-Fluoro-1,3-dioxo-1H-pyrido[1,2-c]pyrimidin-2(3H)-yl)-2-methylphenyl)-7-(2-hydroxypropan-2-yl)-9H-carbazole-1-carboxamide]
Human recombinant Btk
  IC50: 1.6 nM
Jak2 tyrosine kinase
  IC50: 1900 nM
  Ratio of Jak2/Btk IC50 values: 1200
[1]; B-cell
  IC50: 140 nM

## COc1ccn2c(=O)n(-c3cccc(-c4ccc(C(N)=O)c5[nH]c6cc(C(C)(C)O)ccc6c45)c3C)c(=O)cc2c1 [Example 11, 7-(2-Hydroxypropan-2-yl)-4-(3-(6-methoxy-1,3-dioxo-1H-pyrido[1,2-c]pyrimidin-2(3H)-yl)-2-methylphenyl)-9H-carbazole-1-carboxamide]
Human recombinant Btk
  IC50: 0.63 nM
Jak2 tyrosine kinase
  IC50: 1000 nM
  Ratio of Jak2/Btk IC50 values: 1600
[1]; B-cell
  IC50: 140 nM

## Cc1c(-c2ccc(C(N)=O)c3[nH]c4c(F)c(C(C)(C)O)ccc4c23)cccc1-n1c(=O)c2cccc(F)c2n(C)c1=O [Example 33, 8-fluoro-4-(3-(8-fluoro-1-methyl-2,4-dioxo-1,2-dihydroquinazolin-3(4H)-yl)-2-methylphenyl)-7-(2-hydroxypropan-2-yl)-9H-carbazole-1-carboxamide]
Human recombinant Btk
  IC50: 0.4 nM
Jak2 tyrosine kinase
  IC50: 226 nM
  Ratio of Jak2/Btk IC50 values: 540
[1]; B-cell
  IC50: 250 nM

## CC(=O)NCc1ccc2c(c1)[nH]c1c(C(N)=O)ccc(-c3cccc(-n4c(=O)cc5c(F)cccn5c4=O)c3C)c12 [Example 30, 7-(acetamidomethyl)-4-(3-(5-fluoro-1,3-dioxo-1H-pyrido[1,2-c]pyrimidin-2(3H)-yl)-2-methylphenyl)-9H-carbazole-1-carboxamide]
Human recombinant Btk
  IC50: 1.2 nM
Jak2 tyrosine kinase
  IC50: 430 nM
  Ratio of Jak2/Btk IC50 values: 360
[1]; B-cell
  IC50: 130 nM

## Cc1c(-c2ccc(C(N)=O)c3[nH]c4cc(C(C)(C)O)ccc4c23)cccc1-n1c(=O)c2cccc(F)c2n(C)c1=O (atropisomer, axis not shown) [Example 3, 4-(3-(S)-(8-Fluoro-1-methyl-2,4-dioxo-1,2-dihydroquinazolin-3(4H)-yl)-2-methylphenyl)-7-(2-hydroxypropan-2-yl)-9H-carbazole-1-carboxamide]
Jak2 tyrosine kinase
  IC50: 1200 nM
[1]
  IC50: 190 nM

## COCc1ccc2c(c1)[nH]c1c(C(N)=O)ccc(-c3cccc(-n4c(=O)cc5c(Cl)cccn5c4=O)c3C)c12 [Example 17, 4-(3-(5-Chloro-1,3-dioxo-1H-pyrido[1,2-c]pyrimidin-2(3H)-yl)-2-methylphenyl)-7-(methoxymethyl)-9H-carbazole-1-carboxamide]
Human recombinant Btk
  IC50: 1.7 nM
Jak2 tyrosine kinase
  IC50: 1900 nM
  Ratio of Jak2/Btk IC50 values: 1100
[1]; B-cell
  IC50: 110 nM

## COc1cccc2c(=O)n(-c3cccc(-c4ccc(C(N)=O)c5[nH]c6cc(C(C)(C)O)ccc6c45)c3C)c(=O)n(C)c12 [Example 7, 7-(2-Hydroxypropan-2-yl)-4-(3-(8-methoxy-1-methyl-2,4-dioxo-1,2-dihydroquinazolin-3(4H)-yl)-2-methylphenyl)-9H-carbazole-1-carboxamide]
Human recombinant Btk
  IC50: 1.7 nM
Jak2 tyrosine kinase
  IC50: 1300 nM
  Ratio of Jak2/Btk IC50 values: 760
[1]; B-cell
  IC50: 220 nM

## Cc1c(-c2ccc(C(N)=O)c3[nH]c4cc(CN5CCCC5)ccc4c23)cccc1-n1c(=O)cc2c(Cl)cccn2c1=O [Example 31, 4-(3-(5-chloro-1,3-dioxo-1H-pyrido[1,2-c]pyrimidin-2(3H)-yl)-2-methylphenyl)-7-(pyrrolidin-1-ylmethyl)-9H-carbazole-1-carboxamide]
[1]; B-cell
  IC50: 60 nM

## Cc1c(-c2ccc(C(N)=O)c3[nH]c4cc(N(C)C)ccc4c23)cccc1-n1c(=O)cc2c(F)cccn2c1=O [Example 29, 7-(dimethylamino)-4-(3-(5-fluoro-1,3-dioxo-1H-pyrido[1,2-c]pyrimidin-2(3H)-yl)-2-methylphenyl)-9H-carbazole-1-carboxamide]
[1]; B-cell
  IC50: 56 nM

## Cc1c(-c2ccc(C(N)=O)c3[nH]c4cc(C(C)(C)O)ccc4c23)cccc1-n1c(=O)cc2c(Cl)cccn2c1=O [Example 14, 4-(3-(R)-(5-Chloro-1,3-dioxo-1H-pyrido[1,2-c]pyrimidin-2(3H)-yl)-2-methylphenyl)-7-(2-hydroxypropan-2-yl)-9H-carbazole-1-carboxamide]
[1]
  IC50: 78 nM
